Where a SMILES comes first, the peptide text is derived from it. Bridges are numbered along the chain shown (N, C = ends). [ ]: non-standard residue; d: D form. The star is where a group is joined. Threoninol(2S,3R) = C[C@@H](O)[C@H](CO)N*
Columns and labels:
[1] = biological target: Tyrosine-protein kinase Lck (Homo sapiens, UniProt P06239); assay: DRUGMATRIX: Protein Tyrosine Kinase, LCK enzyme inhibition (substrate: Poly(Glu:Tyr)); format: cell-based, Insect cells; conditions: insect cells; Not Active = under 50% inhibition at 10 µM
Sequence of Tyrosine-protein kinase Lck (P06239 whole entry): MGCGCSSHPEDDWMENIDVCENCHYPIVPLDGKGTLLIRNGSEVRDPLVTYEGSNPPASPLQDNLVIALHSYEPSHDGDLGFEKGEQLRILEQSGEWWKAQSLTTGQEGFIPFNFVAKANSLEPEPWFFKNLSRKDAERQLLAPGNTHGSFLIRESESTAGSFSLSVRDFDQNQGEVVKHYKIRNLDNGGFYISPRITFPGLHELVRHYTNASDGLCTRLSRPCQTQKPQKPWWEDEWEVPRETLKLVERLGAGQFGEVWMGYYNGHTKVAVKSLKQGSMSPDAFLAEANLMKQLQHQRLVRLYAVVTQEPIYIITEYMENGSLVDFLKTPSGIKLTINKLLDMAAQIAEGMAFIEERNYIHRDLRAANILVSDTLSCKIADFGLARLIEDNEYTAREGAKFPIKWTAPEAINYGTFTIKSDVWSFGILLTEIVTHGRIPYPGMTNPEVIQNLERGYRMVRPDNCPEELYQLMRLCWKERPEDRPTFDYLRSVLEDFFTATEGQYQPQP

[2] = biological target: Substance-P receptor (Homo sapiens, UniProt P25103); format: cell membranes, Membrane; conditions: cho; further: in other assays of this panel Not Active means under 50% inhibition at 10 µM
Sequence of Substance-P receptor (P25103 whole entry): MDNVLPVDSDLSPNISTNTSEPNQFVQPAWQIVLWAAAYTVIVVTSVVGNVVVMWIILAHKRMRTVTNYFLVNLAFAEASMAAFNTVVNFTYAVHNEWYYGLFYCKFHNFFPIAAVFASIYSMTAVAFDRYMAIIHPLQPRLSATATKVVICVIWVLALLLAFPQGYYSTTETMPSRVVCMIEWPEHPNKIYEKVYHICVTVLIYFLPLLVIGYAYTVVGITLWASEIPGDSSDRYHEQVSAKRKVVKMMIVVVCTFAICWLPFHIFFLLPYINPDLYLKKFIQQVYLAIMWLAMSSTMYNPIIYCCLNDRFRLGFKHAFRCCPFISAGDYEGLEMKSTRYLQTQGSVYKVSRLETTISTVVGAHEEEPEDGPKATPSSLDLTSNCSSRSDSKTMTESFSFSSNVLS

[3] = biological target: T1, Vasoactive intestinal polypeptide receptor 1 (Homo sapiens, UniProt P32241); format: cell membranes, Membrane; conditions: ht-29; further: in other assays of this panel Not Active means under 50% inhibition at 10 µM
T1 sequence (P32241 whole entry): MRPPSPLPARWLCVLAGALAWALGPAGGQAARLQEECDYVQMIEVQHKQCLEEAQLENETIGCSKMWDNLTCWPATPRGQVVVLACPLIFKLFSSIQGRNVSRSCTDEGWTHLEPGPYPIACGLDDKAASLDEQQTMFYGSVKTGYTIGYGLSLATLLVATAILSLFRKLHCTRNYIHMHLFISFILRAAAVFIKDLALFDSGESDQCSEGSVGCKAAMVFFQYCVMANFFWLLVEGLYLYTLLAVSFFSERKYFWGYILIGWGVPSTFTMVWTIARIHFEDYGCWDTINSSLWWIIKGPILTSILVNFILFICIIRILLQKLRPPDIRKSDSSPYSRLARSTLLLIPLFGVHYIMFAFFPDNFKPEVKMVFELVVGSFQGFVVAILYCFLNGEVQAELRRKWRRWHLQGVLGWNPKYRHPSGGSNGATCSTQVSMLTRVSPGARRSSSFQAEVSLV

[4] = biological target: T2, Leukotriene C4 synthase (Cavia porcellus, UniProt A6XA80); format: tissue-based, Lung;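 further: enzyme inhibition assay of leukotriene C4 synthase, using LTA4 as the substrate; in other assays of this panel Not Active means under 50% inhibition at 10 µM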
T2 sequence (A6XA80 whole entry): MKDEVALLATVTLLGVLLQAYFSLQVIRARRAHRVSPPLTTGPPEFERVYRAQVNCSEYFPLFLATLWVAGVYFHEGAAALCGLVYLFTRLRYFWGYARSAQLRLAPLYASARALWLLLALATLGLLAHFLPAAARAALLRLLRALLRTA

[5] = biological target: Beta-3 adrenergic receptor (Homo sapiens, UniProt P13945); assay: DRUGMATRIX: Adrenergic beta3 radioligand binding (ligand: [125I] Cyanopindolol); format: cell membranes, Membrane; conditions: hek293; Not Active = under 50% inhibition at 10 µM
Sequence of Beta-3 adrenergic receptor (P13945 whole entry): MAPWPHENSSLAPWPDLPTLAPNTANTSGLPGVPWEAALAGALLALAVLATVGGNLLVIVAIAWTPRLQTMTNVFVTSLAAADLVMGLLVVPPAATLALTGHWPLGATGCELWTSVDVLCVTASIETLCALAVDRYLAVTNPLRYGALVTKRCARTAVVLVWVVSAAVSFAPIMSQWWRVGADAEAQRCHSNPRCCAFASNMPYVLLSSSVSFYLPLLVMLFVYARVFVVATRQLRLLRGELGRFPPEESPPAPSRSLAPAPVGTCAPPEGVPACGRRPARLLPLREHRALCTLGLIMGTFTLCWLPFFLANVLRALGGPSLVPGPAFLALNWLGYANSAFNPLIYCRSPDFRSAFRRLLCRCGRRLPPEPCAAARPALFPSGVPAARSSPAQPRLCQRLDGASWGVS

[6] = biological target: Matrix metalloproteinase-9 (Homo sapiens, UniProt P14780); assay: biochemical; format: cell-based;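 further: inhibition of isolated MMP-9 enzyme activity toward a synthetic peptide substrate, from the DrugMatrix protease screening panel; in other assays of this panel Not Active means under 50% inhibition at 10 µM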
Sequence of Matrix metalloproteinase-9 (P14780 whole entry): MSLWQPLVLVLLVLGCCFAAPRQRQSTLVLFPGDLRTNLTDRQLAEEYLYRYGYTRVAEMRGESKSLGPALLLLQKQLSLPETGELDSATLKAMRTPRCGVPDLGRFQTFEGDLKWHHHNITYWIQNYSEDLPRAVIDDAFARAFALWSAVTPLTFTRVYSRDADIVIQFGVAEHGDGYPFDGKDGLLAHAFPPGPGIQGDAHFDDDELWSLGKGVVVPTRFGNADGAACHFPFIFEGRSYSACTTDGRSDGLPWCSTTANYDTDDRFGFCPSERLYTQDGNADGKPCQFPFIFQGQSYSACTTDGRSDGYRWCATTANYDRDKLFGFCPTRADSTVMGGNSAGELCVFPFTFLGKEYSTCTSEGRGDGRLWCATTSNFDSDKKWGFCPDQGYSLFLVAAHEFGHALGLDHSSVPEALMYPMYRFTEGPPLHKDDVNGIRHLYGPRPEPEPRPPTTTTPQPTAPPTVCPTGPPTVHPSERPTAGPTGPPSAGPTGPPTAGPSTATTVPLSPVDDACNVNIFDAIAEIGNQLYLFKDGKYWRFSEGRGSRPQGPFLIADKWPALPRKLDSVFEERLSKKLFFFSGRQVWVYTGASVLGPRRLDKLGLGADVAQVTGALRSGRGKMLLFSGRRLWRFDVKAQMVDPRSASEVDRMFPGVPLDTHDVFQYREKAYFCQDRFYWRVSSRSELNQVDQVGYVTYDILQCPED

[7] = biological target: T3, 3-hydroxy-3-methylglutaryl-coenzyme A reductase (Homo sapiens, UniProt P04035); parameters: species or system Escherichia coli
T3 sequence (P04035 whole entry): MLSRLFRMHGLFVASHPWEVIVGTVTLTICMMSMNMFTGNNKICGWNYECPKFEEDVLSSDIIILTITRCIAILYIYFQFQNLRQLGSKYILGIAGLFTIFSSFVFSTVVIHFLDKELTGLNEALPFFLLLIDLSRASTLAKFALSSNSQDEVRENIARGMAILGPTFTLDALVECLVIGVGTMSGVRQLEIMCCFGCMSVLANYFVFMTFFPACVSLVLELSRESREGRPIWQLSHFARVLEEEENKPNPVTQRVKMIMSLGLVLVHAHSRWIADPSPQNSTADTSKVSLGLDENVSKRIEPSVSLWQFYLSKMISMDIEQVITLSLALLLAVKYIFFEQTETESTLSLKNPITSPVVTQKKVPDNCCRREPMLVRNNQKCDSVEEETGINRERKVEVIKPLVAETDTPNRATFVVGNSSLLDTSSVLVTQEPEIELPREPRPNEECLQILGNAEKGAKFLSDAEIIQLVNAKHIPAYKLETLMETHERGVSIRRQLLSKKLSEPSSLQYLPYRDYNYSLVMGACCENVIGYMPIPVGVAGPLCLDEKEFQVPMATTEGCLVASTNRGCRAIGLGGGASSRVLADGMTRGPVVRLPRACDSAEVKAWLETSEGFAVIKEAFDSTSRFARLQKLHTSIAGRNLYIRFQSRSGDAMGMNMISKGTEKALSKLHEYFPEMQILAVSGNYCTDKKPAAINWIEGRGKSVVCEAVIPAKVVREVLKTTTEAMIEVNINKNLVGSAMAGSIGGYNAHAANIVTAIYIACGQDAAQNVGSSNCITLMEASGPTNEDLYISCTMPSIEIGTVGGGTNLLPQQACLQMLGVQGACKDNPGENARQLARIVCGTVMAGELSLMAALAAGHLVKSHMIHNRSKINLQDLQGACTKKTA

[8] = biological target: cGMP-specific 3',5'-cyclic phosphodiesterase (Homo sapiens, UniProt O76074); assay: DRUGMATRIX: Phosphodiesterase PDE5 enzyme inhibition (substrate: [3H]cGMP + cGMP); format: tissue-based; conditions: platelet; Not Active = under 50% inhibition at 10 µM

COc1ccccc1C(=O)N1CCC(Cc2ccccc2)CC1
Not Active: IC50 [1] | IC50 [2] | IC50 [3] | IC50 [4] | IC50 [5] | IC50 [6] | IC50 [7] | IC50 [8]

Cc1ccccc1C(=O)N1CCC(Cc2ccccc2)CC1
Not Active: IC50 [1] | IC50 [2] | IC50 [3] | IC50 [4] | IC50 [5] | IC50 [6] | IC50 [7] | IC50 [8]

O=C1CC[C@H](N2C(=O)c3ccccc3C2=O)C(=O)N1
Not Active: IC50 [1] | IC50 [2] | IC50 [3] | IC50 [4] | IC50 [5] | IC50 [6] | IC50 [7] | IC50 [8]

N=C(Nc1ccccc1)Nc1ccccc1
Not Active: IC50 [1] | IC50 [2] | IC50 [3] | IC50 [4] | IC50 [5] | IC50 [6] | IC50 [7] | IC50 [8]

C[C@@H](O)[C@H](CO)NC(=O)[C@@H]1CSSC[C@H](NC(=O)[C@H](N)Cc2ccccc2)C(=O)N[C@@H](Cc2ccccc2)C(=O)N[C@H](Cc2c[nH]c3ccccc23)C(=O)N[C@@H](CCCCN)C(=O)N[C@@H]([C@@H](C)O)C(=O)N1 (H-[dF]CF[dW]KTC-{Threoninol(2S,3R)}; disulfide 2-7)
Not Active: IC50 [1] | IC50 [2] | IC50 [3] | IC50 [4] | IC50 [5] | IC50 [6] | IC50 [7] | IC50 [8]

S=C=Nc1cccc2ccccc12 [1-NAPHTHYLISOTHIOCYANATE]
Not Active: IC50 [1] | IC50 [2] | IC50 [3] | IC50 [4] | IC50 [5] | IC50 [6] | IC50 [7] | IC50 [8]

C[C@](O)(CS(=O)(=O)c1ccc(F)cc1)C(=O)Nc1ccc(C#N)c(C(F)(F)F)c1 [(R)-BICALUTAMIDE]
Not Active: IC50 [1] | IC50 [2] | IC50 [3] | IC50 [4] | IC50 [5] | IC50 [6] | IC50 [7] | IC50 [8]

CCCC(=O)Nc1ccc(OCC(O)CNC(C)C)c(C(C)=O)c1 (centres undefined) [ACEBUTOLOL]
Not Active: IC50 [1] | IC50 [2] | IC50 [3] | IC50 [4] | IC50 [5] | IC50 [6] | IC50 [7] | IC50 [8]

CC(=O)Nc1ccc(O)cc1 [ACETAMINOPHEN]
Not Active: IC50 [1] | IC50 [2] | IC50 [3] | IC50 [4] | IC50 [5] | IC50 [6] | IC50 [7] | IC50 [8]

COc1cc2c(c3oc(=O)c4c(c13)CCC4=O)[C@@H]1C=CO[C@@H]1O2 [AFLATOXIN]
Not Active: IC50 [1] | Ki [1] | IC50 [2] | Ki [2] | IC50 [3] | Ki [3] | IC50 [4] | Ki [4] | IC50 [5] | Ki [5] | IC50 [6] | Ki [6] | IC50 [7] | Ki [7] | IC50 [8] | Ki [8]

N=C(N)NC(=O)c1nc(Cl)c(N)nc1N [AMILORIDE]
Not Active: IC50 [1] | IC50 [2] | IC50 [3] | IC50 [4] | IC50 [5] | IC50 [6] | IC50 [7] | IC50 [8]

Cc1cc(=O)n(-c2ccccc2)n1C [ANTIPYRINE]
Not Active: IC50 [1] | IC50 [2] | IC50 [3] | IC50 [4] | IC50 [5] | IC50 [6] | IC50 [7] | IC50 [8]

CN1C(=O)COc2c(C(=O)NC3CN4CCC3CC4)cc(Cl)cc21 (centres undefined) [AZASETRON]
Not Active: IC50 [1] | IC50 [2] | IC50 [3] | IC50 [4] | IC50 [5] | IC50 [6] | IC50 [7] | IC50 [8]

C[C@H]1C[C@H]2[C@@H]3CCC4=CC(=O)C=C[C@]4(C)[C@@]3(Cl)[C@@H](O)C[C@]2(C)[C@@]1(O)C(=O)CO [BECLOMETHASONE]
Not Active: IC50 [1] | IC50 [2] | IC50 [3] | IC50 [4] | IC50 [5] | IC50 [6] | IC50 [7] | IC50 [8]

CCOC(=O)[C@H](CCc1ccccc1)N[C@H]1CCc2ccccc2N(CC(=O)O)C1=O [BENAZEPRIL]
Not Active: IC50 [1] | IC50 [2] | IC50 [3] | IC50 [4] | IC50 [5] | IC50 [6] | IC50 [7] | IC50 [8]

Nc1c(CC(=O)O)cccc1C(=O)c1ccc(Br)cc1 [BROMFENAC]
Not Active: IC50 [1] | IC50 [2] | IC50 [3] | IC50 [4] | IC50 [5] | IC50 [6] | IC50 [7] | IC50 [8]

CCCCN1CCCCC1C(=O)Nc1c(C)cccc1C.Cl (centres undefined) [BUPIVACAINE HYDROCHLORIDE]
Not Active: IC50 [1] | IC50 [2] | IC50 [3] | IC50 [4] | IC50 [5] | IC50 [6] | IC50 [7] | IC50 [8]

O=C1CC2(CCCC2)CC(=O)N1CCCCN1CCN(c2ncccn2)CC1 [BUSPIRONE]
Not Active: IC50 [1] | IC50 [2] | IC50 [3] | IC50 [4] | IC50 [5] | IC50 [6] | IC50 [7] | IC50 [8]

C[C@@]12C(=O)OC(=O)[C@]1(C)[C@H]1CC[C@@H]2O1 [CANTHARIDIN]
Not Active: IC50 [1] | IC50 [2] | IC50 [3] | IC50 [4] | IC50 [5] | IC50 [6] | IC50 [7] | IC50 [8]

O=NN(CCCl)C(=O)NCCCl [CARMUSTINE]
Not Active: IC50 [1] | IC50 [2] | IC50 [3] | IC50 [4] | IC50 [5] | IC50 [6] | IC50 [7] | IC50 [8]

CC1=C(C(=O)O)N2C(=O)[C@@H](NC(=O)[C@H](N)c3ccccc3)[C@H]2SC1 [CEPHALEXIN ANHYDROUS]
Not Active: IC50 [1] | IC50 [2] | IC50 [3] | IC50 [4] | IC50 [5] | IC50 [6] | IC50 [7] | IC50 [8]

O=C(N[C@H](CO)[C@H](O)c1ccc([N+](=O)[O-])cc1)C(Cl)Cl [CHLORAMPHENICOL]
Not Active: IC50 [1] | IC50 [2] | IC50 [3] | IC50 [4] | IC50 [5] | IC50 [6] | IC50 [7] | IC50 [8]

ClC(Cl)Cl [CHLOROFORM]
Not Active: IC50 [1] | IC50 [2] | IC50 [3] | IC50 [4] | IC50 [5] | IC50 [6] | IC50 [7] | IC50 [8]

COc1ccc2cc([C@H](C)C(=O)O)ccc2c1 [NAPROXEN]
Not Active: IC50 [1] | IC50 [2] | IC50 [3] | IC50 [4] | IC50 [5] | IC50 [6] | IC50 [7]
